# Data from patent US10494611B2, “Compositions comprising a mitofusin inhibitor for promoting cell reprogramming and a use thereof” (KOREA RESEARCH INSTITUTE OF BIOSCIENCE AND BIOTECHNOLOGY, priority 2014, dated 2019).
# “Also recorded” adds a separate entry of the source.
# Tests used:
# MEFs [1] = assay: Reprogramming of MEFs by OSKM transduction, AP staining; format: cell-based, mouse
# human Mfn1 promoter = assay: Human Mfn1 promoter reporter assay (luciferase) in 293T cells, REDOX library screening; format: cell-based; settings: 293T cells with human Mfn1 promoter reporter, 10 μM, 48 hours
# Description: (§1) In one specific embodiment of the present invention, mouse and human Mfn1 promoter reporter (Genecopoeia) cells were prepared using Mfn1−/−MEFs and 293T cells, respectively, and a Screen-Well™ REDOX library containing the 84 compounds was treated at a concentration of 10 μM by for 48 hours.
# (§2) Mfn1-KO MEFs were stably transfected with an Mfn1 promoter reporter construct (Genecopoeia) cells of mouse and human were produced using Mfn1−/− MEFs and 293T cells (human embryonic renal cells) and then treated with the Screen-Well™ REDOX library, containing 84 compounds, for 48 hours in a concentration of 10 nM to 10 μM. Mfn1 promoter activity was measured in the culture supernatants with the Secrete-Pair™ Dual Luminescence and Gaussia Luciferase Assay Kits (Genecopoeia) using a SpectraMax microplate reader.
# MEFs [2] = assay: Mitochondrial morphology of reprogramming cultures (Mito-EYFP); format: cell-based, mouse; settings: OSKM, 50 μM Mdivi1, Mito-EYFP, D7
# Description: Cells were fixed in 4% paraformaldehyde for 10 minutes at room temperature (RT) and then in MeOH for 15 minutes at −20° C., after which their permeability was increased with 0.3% Triton X-100 in PBS for 30 min and blocked with 4% BSA for 2 hours at RT. The samples were stained with the anti-Tom20 antibody diluted in a blocking buffer at 4° C. overnight. After washing, the cells were stained with Alexa 488-conjugated secondary antibodies (Invitrogen) for 45 minutes at RT. The nuclei were counterstained with 10 μg/ml DAPI. For live cell imaging, the cells were incubated with 200 nM MitoTracker® Red CMXRos (Invitrogen) for 30 minutes at 37° C. Florescent images were analyzed under an IX51 microscope (Olympus) or an Axiovert 200M microscope (Carl Zeiss).
# mouse Mfn1 promoter = assay: Mouse Mfn1 promoter reporter assay (luciferase), REDOX library screening; format: cell-based; settings: Mfn1−/− MEFs carrying Mfn1 promoter reporter, 10 μM, 48 hours
# Description: as §1, §2
structure (smiles),measurement,setting,value
"O=CC[C@@H](O)[C@H](O)[C@H](O)CO [2-DG, 2-deoxy-D-glucose]",cellular reprogramming (AP+ colonies) with glycolysis inhibitor,"MEFs [1]; OSKM reprogramming of MEFs, D11",substantially decreased
CC1=C(C)C(=O)C(CC[C@](C)(O)CCC[C@H](C)CCC[C@H](C)CCCC(C)C)=C(C)C1=O [D-α-tocopheryl quinone],human Mfn1 promoter activity (relative luciferase activity),human Mfn1 promoter,down-regulated; also recorded: best inhibit
COc1cc(-n2c(=S)[nH]c3ccccc3c2=O)c(Cl)cc1Cl [Mdivi1],higher reprogramming efficiency of Mfn1−/− and Mfn2−/− MEFs,"MEFs [1]; OSKM, 50 μM Mdivi1, AP+ colonies D11",blocked
same,fragmented mitochondrial morphology of Mfn1−/− and Mfn2−/− MEFs,MEFs [2],blocked
Cc1coc2c1C(=O)C(=O)c1c-2ccc2c1CCCC2(C)C [Tanshinone IIA],mouse Mfn1 promoter activity (relative luciferase activity),mouse Mfn1 promoter,top 2 upregulated
"C[C@]12C=CC(=O)C=C1CC[C@@H]1C2=CC[C@]2(C)[C@@H](C(=O)CN3CCN(c4cc(N5CCCC5)nc(N5CCCC5)n4)CC3)CC[C@@H]12.O=C(O)/C=C\C(=O)O [U74389G maleate, 21-[4-(2,6-di-1-pyrrolidinyl-4-pyrimidinyl)-1-piperazinyl]pregna-1,4,9[11]-triene-3,20-dione maleate]",mouse Mfn1 promoter activity (relative luciferase activity),"mouse Mfn1 promoter; listed as 21-[4-(2,6-di-1-pyrrolidinyl-4-pyrimidinyl)-1-piperazinyl]pregna-1,4,9[11]-trien, maleate",top 3 downregulated
same,mouse Mfn1 promoter activity (relative luciferase activity),mouse Mfn1 promoter; maleate,down-regulated; also recorded: inhibited
same,human Mfn1 promoter activity (relative luciferase activity),human Mfn1 promoter; maleate,down-regulated; also recorded: best inhibit
CN(C/C=C/C#CC(C)(C)C)Cc1cccc2ccccc12.Cl [erbinafine.HCl],mouse Mfn1 promoter activity (relative luciferase activity),mouse Mfn1 promoter,top 2 upregulated
CCCCCCCCCCCCCCCC(=O)OC/C=C(C)/C=C/C=C(C)/C=C/C1=C(C)CCCC1(C)C [retinyl palmitate],human Mfn1 promoter activity (relative luciferase activity),human Mfn1 promoter,down-regulated; also recorded: best inhibit
Cc1nc(C)c(C)nc1C [tetramethylpyrazine],mouse Mfn1 promoter activity (relative luciferase activity),mouse Mfn1 promoter,top 3 downregulated
same,mouse Mfn1 promoter activity (relative luciferase activity),mouse Mfn1 promoter; listed as tetramethyl pyrazine,down-regulated
